In publication PMC5670239, “Structural basis for mutually exclusive co-transcriptional nuclear cap-binding complexes with either NELF-E or ARS2” (Nature Communications, 2017):
Numbering of substitutions follows the chain as printed.

What was measured:
CBCmut = biological target: T1, CBCmut (Homo sapiens, UniProt P52298, Y50A); experiment: ITC, m^7GTP binding to CBCmut; settings: 25 °C, pH 7.8, m^7GTP titrated to CBCmut, mean ± SD of 2 experiments
T1 sequence (P52298 1-156 Y50A): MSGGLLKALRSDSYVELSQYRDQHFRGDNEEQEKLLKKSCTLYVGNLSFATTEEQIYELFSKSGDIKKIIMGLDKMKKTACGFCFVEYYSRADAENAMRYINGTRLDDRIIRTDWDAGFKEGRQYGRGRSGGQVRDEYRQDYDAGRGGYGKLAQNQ
T1 sequence (Q09161 20-790 Y461A/R610E/H651A partner): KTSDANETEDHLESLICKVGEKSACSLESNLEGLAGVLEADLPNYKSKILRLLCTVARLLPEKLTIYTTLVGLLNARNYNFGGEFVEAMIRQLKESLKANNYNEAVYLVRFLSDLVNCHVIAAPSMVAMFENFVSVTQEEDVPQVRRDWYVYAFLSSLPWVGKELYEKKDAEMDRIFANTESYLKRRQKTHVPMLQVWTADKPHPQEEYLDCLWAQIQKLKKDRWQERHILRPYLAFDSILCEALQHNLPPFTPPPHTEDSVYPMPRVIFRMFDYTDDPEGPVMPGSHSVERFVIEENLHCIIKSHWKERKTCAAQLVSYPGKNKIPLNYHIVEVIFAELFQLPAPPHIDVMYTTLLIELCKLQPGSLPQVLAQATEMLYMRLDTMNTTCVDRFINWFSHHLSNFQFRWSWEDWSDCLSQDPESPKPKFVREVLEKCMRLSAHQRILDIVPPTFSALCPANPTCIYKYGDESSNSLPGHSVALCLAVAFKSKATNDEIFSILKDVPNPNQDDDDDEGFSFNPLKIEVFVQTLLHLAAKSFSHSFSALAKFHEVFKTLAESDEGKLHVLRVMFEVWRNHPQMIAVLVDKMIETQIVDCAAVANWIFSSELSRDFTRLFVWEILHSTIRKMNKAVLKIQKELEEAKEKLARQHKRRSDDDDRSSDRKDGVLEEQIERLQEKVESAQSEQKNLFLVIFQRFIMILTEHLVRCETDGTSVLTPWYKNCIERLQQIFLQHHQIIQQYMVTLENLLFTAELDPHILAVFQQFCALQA
Description: For CBC, a triple mutant in CBP80 (Y461A/R610E/H651A) was combined with various mutations in CBP20 (Y50A, Y50A/Y89A, or Y50A/Y89A/D107R).
ITC experiments were performed on a MicroCal ITC200 system (Malvern). Proteins were dialyzed overnight in buffer 20 mM HEPES, 120 mM NaCl, 2 mM tris(2-carboxyethyl)phosphine, pH 7.8. Injections of 1.5 µl protein A were added at an interval of 120–180 s into 205 µl of protein B in the cell, with a stirring speed of 800 rpm at 25 °C. The experimental data were analysed with MicroCal ITC Origin and were fitted to a single-site binding equation.

CBC = biological target: T2, CBC (Homo sapiens, UniProt P52298); experiment: ITC, binding to CBC without cap analogue; settings: ITC (MicroCal ITC200), 25 °C, 20 mM HEPES, 120 mM NaCl, 2 mM TCEP, pH 7.8, single-site fit, no cap analogue pre-bound, mean ± SD of at least two independent experiments
T2 sequence (P52298 1-156): T1 sequence (P52298 1-156 Y50A) with A50Y
T2 sequence (Q09161 20-790 partner): T1 sequence (Q09161 20-790 Y461A/R610E/H651A partner) with A442Y, E591R, A632H
Description: hARS2 isoform-4 (871 residues, UniProt:Q9BXP5-4, also known as isoform-e, NP_001122326) constructs (residues 147–871, 147–845, 763–871, 763–845, 827–871) hNELF-E (NM_002904.5) (244–380, 244–360) and hPHAX (NM_032177.3) (1–394, 103–294, 103–308, 103–327) were cloned into pETM11 (EMBL). Full-length hNELF-E (1–380) was cloned into pFASTBac and CBP20 into pETM30. Primers used are given in Supplementary Table 2. All constructs were expressed in E. coli Rosetta 2 (Novagen), except full-length NELF-E and CBP80ΔNLS (CBP80 with residues 1–19 deleted[2]), which were expressed in High Five insect cells (Life Technology). Cells were harvested and lysed by sonication in lysis buffer containing 50 mM HEPES, pH 7.8, 300 mM NaCl, 10% (v/v) glycerol, 5 mM β-mercaptoethanol. Lysates were clarified by centrifugation and applied on an equilibrated Ni-sepharose column (GE Healthcare), washed with 20 mM imidazole in lysis buffer, and eluted with 300 mM imidazole in lysis buffer. While dialysing into 20 mM HEPES, pH 7.8, 120 mM NaCl, 10% (v/v) glycerol, 5 mM β-mercaptoethanol, the N-terminal 6-histidine-tag was cleaved with His-tagged Tobacco Etch Virus (TEV) protease overnight in a ratio 1:100 mg TEV per mg protein. The cleaved protein was further purified first on Ni-sepharose to remove TEV and then using an anion exchange column (HiTrap Q, GE Healthcare) followed if necessary by a Heparin column (GE Healthcare). In both cases a NaCl gradient from 50 to 800 mM in 20 mM HEPES 7.8, 0.5 mM tris(2-carboxyethyl)phosphine was used. To reconstitute the CBC heterodimer, cleared His-tagged CBP20 lysate was first immobilised on a Ni-sepharose column. After washing the column with lysis buffer, the cleared CBP80 lysate was applied to the column and further purification steps performed as described above. To remove the access of CBP20 the flow through of the Ni-column after TEV cleavage was loaded on an anion exchange column (HiTrap Q, GE Healthcare) and CBC eluted by a NaCl gradient as described above. In the text we refer to CBP80ΔNLS and CBP80ΔNLS-CBP20 as CBP80 and CBC, respectively. […]

K D (CBCmut): as well as wild-type CBC | Kd (CBCmut; SD): 95 ± 24 nM | Kd (CBC): 100 nM | Kd (CBC; SD): 126 ± 45 nM
Structure (SMILES): C[n+]1cn([C@@H]2O[C@H](COP(=O)(O)OP(=O)([O-])OP(=O)(O)O)[C@@H](O)[C@H]2O)c2nc(N)[nH]c(=O)c21 [m^7GTP]
